Source: US20100017370A1, “T CELL EPITOPE DATABASES” (ANTITOPE LIMITED, priority 2006, published 2010)

Test system: helper T cells in human PBMCs
Assay: ex vivo T cell proliferation assay of peptides with CD8+ / CD25hi depleted PBMC
Assay type: cell-based
Details: for Number of responding donors: from 50 donors with a range of MHC class haplotypes; for Mean SI: mean stimulation index for responding donors, 50 donors tested; for helper T cell epitope status by T cell assays (database entry): proliferation assay, threshold SI≧2, CD25hi depletion 10 and 20 minutes; for T cell epitope strength (T cell proliferative responses): PBMCs of donor 475, peptide 5 μM

| Sequence | Number of responding donors | Mean SI | helper T cell epitope status by T cell assays (database entry) | T cell epitope strength (T cell proliferative responses) |
| --- | --- | --- | --- | --- |
| FKGEQGPKG | 4 | 3.5 ± 0.7 | – | – |
| FLLTRILTI | 6 | 3.9 ± 1.6 | – | – |
| FQHESGPLG [test peptide] | 3 | 2.8 ± 0.7 | – | – |
| FQHTSILLI [test peptide] | 5 | 3.8 ± 0.7 | – | – |
| GDKGVSWYQQGSGQS [2-F→G] | – | – | negative | – |
| GFGBHIGPLGEP | – | – | non-T cell epitope | – |
| GQHASGGLA [control peptide with altered P1 residue] | 0 | – | – | – |
| GQHESASLR [control peptide with altered P1 residue] | 0 | – | – | – |
| GQHESGPLG [control peptide with altered P1 residue] | 0 | – | – | – |
| GQHTSILLI [control peptide with altered P1 residue] | 0 | – | – | – |
| GQHWSYPLT [control peptide with altered P1 residue] | 0 | – | – | – |
| ILWEWASYR | 3 | 2.6 ± 0.6 | – | – |
| IQHESASLR [test peptide] | 3 | 2.6 ± 0.1 | – | – |
| LQHASGGLA [test peptide] | 2 | 2.2 ± 0.2 | – | – |
| LQHWSYPLT | 5 | 6.3 ± 1.3 | – | – |
| LSCAAGGRA | 3 | 2.3 ± 0.5 | – | – |
| PKYRNGQPLNSLKIAT [25 M→G] | – | – | negative | – |
| PKYRNMQPLNSLKIAT [compound 25] | – | – | helper T cell epitopes | strong |
| QSISNWGNWYQQKPG [9-L→G] | – | – | negative | – |
| TVFYNIPPMPL [compound 26] | – | – | helper T cell epitopes | strong |
| TVGYNIPPMPL [26 F→G] | – | – | negative | – |
